Laboratory results: EP0410366A2, “Anthracycline derivatives” (BEHRINGWERKE Aktiengesellschaft, priority 1989, dated 1991)
≈ marks a conversion by molar mass, not a printed value. Read-outs that look alike come from different tables or passages of the source.

How the values were obtained:
[1] = system: A 549; experiment: Proliferation test (MTT reduction), A 549; assay type: cell-based; settings: Homo sapiens, read-out: IC₅₀ MTT A 549
Description: (§1) L 1210, A 549 oder HT 29 in exponentieller Wachstumsphase werden in einer Zelldichte von 5 x 10³ Zellen/ml in RPMI 1640 in einer 96 Well Mikrotiterplatte für 72 h mit unterschiedlichen Konzentrationen der Testsubstanz bei 37° C, 5 % CO₂ und 95 % relativer Luftfeuchte inkubiert. Kontrollexperimente erhalten anstelle der Testsubstanz lediglich Wachstumsmedium. Für jede Testsubstanz sowie für die Kontrolle werden 4fach Bestimmungen angesetzt. Nach 65 h Inkubation werden 50 µl einer MTT-Lösung (2.5 mg/ml in Phosphat-gepuffertem Kochsalz) zugegeben. In Gegenwart lebender Zellen wird MTT zu einem dunkelroten unlöslichen Formazanfarbstoff reduziert. Diese Reaktion ist nach 7 h (L 1210 Zellen) bzw. nach 24 h (A 549, HT 29 Zellen) beendet, und das überstehende Medium wird sorgfältig abgesaugt. Der unlösliche Farbstoff wird durch Zugabe von 100 µl DMSO aufgelöst und die Extinktion der so entstehenden Lösung anschließend für jedes Well in einem Multiscan Photometer 340 CC der Fa. Flow bei einer Wellenlänge von 492 nm vermessen.
(§2) Aus dem Verhältnis der Extinktionen behandelter und unbehandelter Zellen ergibt sich eine Dosis-Wirkungskurve, aus der die Konzentration, die gerade 50 % der Zellen (IC₅₀) abtötet, abgelesen werden kann. Für wiederholte Untersuchungen beträgt der Variationskoeffizient weniger als 15 % (Tabelle 1). Tabelle 1

[2] = system: HT 29; experiment: Proliferation test (MTT reduction), HT 29; assay type: cell-based; settings: Homo sapiens, read-out: IC₅₀ MTT HT 29
Description: as §1, §2

[3] = system: L 1210 Leukämie; assay type: in vivo; settings: for opt. Dosis: dose with the largest antitumoral effect
Description: Methodik: Ascitesflüssigkeit wird unter sterilen Bedingungen DBA2 Mäusen (weiblich, 18-20 g) 7 Tage nach Implantation entnommen. Der Ascites wird dreimal mit PBS gewaschen, gezählt und auf eine Zellzahl von 10⁴ in 0.2 ml PBS eingestellt.
10⁴ Zellen, suspendiert in 0.2 ml PBS, werden anschließend DBF1 Mäusen (weiblich, 18-20 g) intravenös injiziert. 6 Tiere pro Gruppe werden für jede Substanzkonzentration bzw. als Kontrolle eingesetzt.
• a) Die Tiere werden am Tag 1 und 5 nach Injektion der Testsubstanz gewogen. Gewichtsverlust von mehr als 20 % am Tag 5 wird als Indikator einer toxischen Substanzwirkung angesehen. • b) Am Ende des Experimentes (Tod aller Tiere oder überlebende Tiere am Tag 60) wird die mittlere Überlebenszeit der Tiere in den jeweiligen Gruppen bestimmt, sofern am Tag 5 des Experimentes mindestens 65 % der Tiere noch gelebt hatten. Die mittlere Überlebenszeit wird ausschließlich für im Verlaufe des Experimentes sterbende Tiere bestimmt. Langzeit-überlebende (LTS) werden bei dieser Berechnung nicht berücksichtigt und gesondert aufgeführt.
Aus der mittleren Überlebenszeit (MSTt) der behandelten Gruppen sowie der Kontrollgruppen (MSTc) wird die antitumorale Wirksamkeit (T/C) für die jeweilige Substanzkonzentration in Prozent der unbehandelten Kontrolle entsprechend der folgenden Formel bestimmt: [formula]
T/C Werte größer als 125 % werden als Indikator einer signifikanten antitumoralen Wirksamkeit der Testsubstanz angesehen. Die Dosis, die den größten antitumoralen Effekt (optimale Dosierung) zeigte, wurde ermittelt. Tiere, die am Tag 60 des Experimentes noch leben, werden als Longterm-Survivors getrennt aufgeführt. Tabelle 2

[4] = system: L 1210 Leukämiezellen; experiment: Cytotoxicity against L 1210 leukemia cells (stem cell assay, SCA; colony formation in soft agar); assay type: cell-based, Maus; settings: Mus musculus
Description: Der Test wurde entsprechend der von Hamburger und Salmon beschriebenen Methodik mit den unten beschriebenen Modifikationen durchgeführt.
Konditioniertes Medium wurde durch McCoy 5A Medium ersetzt. Als Folge der hohen Klonierungsrate der L 1210 Leukämiezellen in Soft Agar wurde die Anzahl an Tumorzellen pro Platte auf 5 x 10² reduziert.
Die Zellen wurden mit unterschiedlichen Konzentrationen der Testsubstanz für 1 h bei 37° C inkubiert. Anschließend wurden die Zellen zweimal mit McCoy 5A Medium gewaschen und anschließend in einem Zwei-Schichten-Agar System als obere Schicht entsprechend der Methode von Hamburger und Salmon ausplatiert.
Zusätzliche Parallelexperimente wurden unter Verwendung einer kontinuierlichen Inkubationszeit durchgeführt, wobei unterschiedliche Konzentrationen der Testsubstanz der oberen Agarschicht vor Ausplatieren der Zellen zugemischt wurden.
Die Platten wurden in einem Brutschrank mit 5 % CO₂, 20 % 02 und 95 % relativer Luftfeuchte für 5-7 Tage inkubiert. Nach dieser Zeit wurden Kolonien mit einem Durchmesser von 60 µm mit Hilfe eines Invertoskopes gezählt.
Die Ergebnisse wurden angegeben als prozentualer Anteil der Kolonien in behandelten versus unbehandelten Gruppen. Der Variationskoeffizient bei wiederholten Experimenten war kleiner als 15 %.
Aus der Dosis-Wirkungskurve wurde die IC₅₀ für die kontinuierliche und einstündige Inkubation bestimmt (Tab. 1).

[5] = system: L 1210; experiment: Proliferation test (MTT reduction), L 1210; assay type: cell-based, Maus; settings: Mus musculus, read-out: IC₅₀ MTT L1210
Description: as §1, §2

[6] = L 1210 iv, treatment iv, Q3D (Verbind. 1: 2x, Pirarubicin: 3x)
[7] = L1210, read-out: IC₅₀ SCA L 1210 1 h

| Compound | opt. Dosis [3, 6] | IC50 ([1]; A549, 72 h) | IC50 ([2]; HT-29, 72 h) | IC50 [4, 7] | IC50 ([5]; L1210, 72 h) | other results |
| --- | --- | --- | --- | --- | --- | --- |
| COc1cccc2c1C(=O)c1c(O)c3c(c(O)c1C2=O)C[C@@](O)(C(=O)CO)C[C@@H]3O[C@H]1C[C@H](N)[C@H](O[C@@H]2CCCCO2)[C@H](C)O1 [Pirarubicin, 4′-O-THP-Doxorubicin, reference compound] | 4.7 mg/kg/inj |  |  |  |  | IC50 ([1]; A549, 72 h incubation): 0.15 µg/mL (≈ 0.239 µM); IC50 ([2]; HT-29, 72 h incubation): 0.016 µg/mL (≈ 0.0255 µM); Effektivität T/C % ([3]; iv): 178%; IC50 ([4]; L1210, 1 h incubation at 37° C, colonies counted after 5-7 days, read-out: IC₅₀ SCA L 1210 1 h): 0.01 µg/mL (≈ 0.0159 µM); IC50 ([4]; L1210, continuous incubation, colonies counted after 5-7 days, read-out: IC₅₀ SCA L 1210 cont): 0.004 µg/mL (≈ 0.00637 µM); IC50 ([5]; L1210, 72 h incubation): 0.004 µg/mL (≈ 0.00637 µM) |
| COc1cc(OC)cc(C(C)(C)OC(=O)N[C@H]2C[C@H](O[C@H]3C[C@](O)(C(=O)CO)Cc4c(O)c5c(c(O)c43)C(=O)c3c(OC)cccc3C5=O)O[C@@H](C)[C@H]2OC2CCCCO2)c1 (stereo partly drawn) [Verbindung 1, 7-O-(3-(3 ,5′-Dimethoxy-α,α-dimethyl-benzyloxycarbonylamino)-4-O-tetrahydropyranyl-2,3,6-tridesoxy-alpha-L-lyxohexopyranosyl)-adriamycinon] | 20 mg/kg/inj | 0.023 µg/mL (≈ 0.0271 µM) | 0.04 µg/mL (≈ 0.0471 µM) | 5.3 µg/mL (≈ 6.24 µM) | 0.027 µg/mL (≈ 0.0318 µM) | zytostatische Wirksamkeit ([3]; "in vivo" L 1210-Testmodell, compared with Doxorubicin or Tetrahydropyranyl-Doxorubicin): erheblich bessere; Effektivität toxisch ([3]; animals per group with toxic effect, at optimal dose): 1/6; Effektivität T/C % ([3]; at optimal dose, mean survival time treated vs control, L 1210 iv, treatment iv, Q3D (Verbind. 1: 2x, Pirarubicin: 3x)): 435%; Effektivität LTS ([3]; long-term survivors at day 60, animals per group, at optimal dose): 5/6 |
| COc1cc(OC)cc(C(C)(C)OC(=O)N[C@H]2C[C@H](O[C@H]3C[C@](O)(C(=O)CO)Cc4c(O)c5c(c(O)c43)C(=O)c3c(OC)cccc3C5=O)O[C@@H](C)[C@H]2O)c1 [Verbindung 2, 7-O-(3-(3 ,5′-Dimethoxy-α,α-dimethyl-benzyloxycarbonylamino)-2,3,6-tridesoxy-alpha-L-lyxohexopyranosyl)-adriamycinon] |  | 0.11 µg/mL (≈ 0.144 µM) | 0.13 µg/mL (≈ 0.17 µM) | 6.4 µg/mL (≈ 8.36 µM) | 0.11 µg/mL (≈ 0.144 µM) |  |
| COc1cc(OC)cc(C(C)(C)OC(=O)N[C@H]2C[C@H](O[C@H]3C[C@](O)(C(=O)CO)Cc4c(O)c5c(c(O)c43)C(=O)c3c(OC)cccc3C5=O)O[C@@H](C)[C@@H]2O)c1 [Verbindung 3, 7-O-(3-(3 ,5′-Dimethoxy-α,α-dimethyl-benzyloxycarbonylamino)-2,3,6-tridesoxy-alpha-L-arabinohexopyranosyl)-adriamycinon] |  | 0.04 µg/mL (≈ 0.0522 µM) | 0.11 µg/mL (≈ 0.144 µM) |  | 0.02 µg/mL (≈ 0.0261 µM) |  |
| COc1cc(OC)cc(C(C)(C)OC(=O)N[C@H]2C[C@H](O[C@H]3C[C@](O)(C(C)=O)Cc4c(O)c5c(c(O)c43)C(=O)c3c(OC)cccc3C5=O)O[C@@H](C)[C@H]2O)c1 [Verbindung 4, 7-O-(3-(3 ,5′-Dimethoxy-α,α-dimethyl-benzyloxycarbonylamino)-2,3,6-tridesoxy-alpha-L-lyxohexopyranosyl)-daunomycinon] |  | 0.13 µg/mL (≈ 0.173 µM) | 0.13 µg/mL (≈ 0.173 µM) | 4.5 µg/mL (≈ 6 µM) | 0.14 µg/mL (≈ 0.187 µM) |  |
| CC[C@@]1(O)C[C@H](O[C@H]2C[C@H](NC(=O)OC(C)(C)c3cc(OC)cc(OC)c3)[C@H](O)[C@H](C)O2)c2c(O)c3c(c(O)c2[C@H]1O)C(=O)c1cccc(O)c1C3=O [Verbindung 8, 7-O-(3-(3,5-Dimethoxy-alpha,alpha-dimethyl-benzyloxycarbonylamino)-2,3,6-tridesoxy-alpha-L-lyxohexopyranosyl)-β-rhodomycinon] |  | < 0.004 µg/mL | < 0.004 µg/mL | 0.47 µg/mL (≈ 0.637 µM) | 0.004 µg/mL (≈ 0.00542 µM) |  |
